Drawing on patent publication US8349841B2, “Vinyl-aryl derivatives for inflammation and immune-related uses” (Synta Pharmaceuticals Corp., priority 2007, dated 2013), this text covers IC50 for six compounds.

Structures can show the parent of a compound that is named as a salt.

The experiment concerns IL-2 production. In words: Inhibition of IL-2 production in PHA-activated Jurkat cells (ELISA). The settings on record: Homo sapiens, PHA 2.5 μg/mL, 20 hours at 37° C., IL-2 ELISA. The format is cell-based. As for the experimental part: Jurkat cells were placed in a 96 well plate (0.5 million cells per well in 1% FBS medium) then a test compound of this invention was added at different concentrations. After 10 minutes, the cells were activated with PHA (final concentration 2.5 μg/mL) and incubated for 20 hours at 37° C. under CO2. The final volume was 200 μL. Following incubation, the cells were centrifuged and the supernatants collected and stored at −70° C. prior to assaying for IL-2 production. A commercial ELISA kit (IL-2 Eli-pair, Diaclone Research, Besancon, France) was used to detect production of IL-2, from which dose response curves were obtained. The IC50 value was calculated as the concentration at which 50% of maximum IL-2 production after stimulation was inhibited versus a non-stimulation control.

As to `CCOC(=O)N1CCC(C)=C(c2ccc(NC(=O)c3c(F)cccc3F)nc2)C1` [Compound 1, ethyl 3-(6-(2,6-difluorobenzamido)pyridin-3-yl)-4-methyl-5,6-dihydropyridine-1(2H)-carboxylate], the IC50 (usually the point on the concentration scale where inhibition reaches its midpoint) is 30 nM.

For `CC1=C(c2cnc(NC(=O)c3c(F)cccc3F)cn2)CN(c2ncccn2)CC1` [Compound 2, 2,6-difluoro-N-(5-(4-methyl-1-(pyrimidin-2-yl)-1,2,5,6-tetrahydropyridin-3-yl)pyrazin-2-yl)benzamide hydrochloride], it took 38 nM to reach half-maximal inhibition (IC50). This IC50 and that of the compound before are within 1.5-fold of each other.

`C=CCOC(=O)N1CCC(c2ccc(NC(=O)c3c(F)cccc3F)cc2)=C(COC(C)=O)C1` [Compound 3, allyl 3-(acetoxymethyl)-4-(4-(2,6-difluorobenzamido)phenyl)-5,6-dihydropyridine-1(2H)-carboxylate] returned an IC50 above 1000 nM.

The compound `CC1=C(c2ccc(NC(=O)c3c(F)cccc3F)nc2)CN(C(=O)c2ccccn2)CC1` [Compound 4, 2,6-difluoro-N-(5-(4-methyl-1-picolinoyl-1,2,5,6-tetrahydropyridin-3-yl)pyridin-2-yl)benzamide hydrochloride] came in with an IC50 of 934 nM.

The compound `CCOC(=O)N1CCC(c2ccc(NC(=O)c3c(F)cccc3F)cc2)=C(COC(C)=O)C1` [Compound 5, ethyl 3-(acetoxymethyl)-4-(4-(2,6-difluorobenzamido)phenyl)-5,6-dihydropyridine-1(2H)-carboxylate] showed an IC50 above 1000 nM.

The compound `CCOC(=O)N1CCC(Cl)=C(c2ccc(NC(=O)c3c(F)cccc3F)cc2)C1` [Compound 6, ethyl 4-chloro-3-(4-(2,6-difluorobenzamido)phenyl)-5,6-dihydropyridine-1(2H)-carboxylate] registered an IC50 of 66 nM.
